Laboratory results from patent US20240271223A1, “BIOMARKERS FOR A THERAPY COMPRISING AN ANGIOGENESIS INHIBITOR” (Eisai R&D Management Co., Ltd., priority 2021, published 2024).

Experiments:
[1] = system: 12 mouse syngeneic tumor models; assay: Antitumor activity of lenvatinib on mouse syngeneic tumor models (ΔT/C); assay type: in vivo; conditions: 10 mg/kg once daily oral; ΔT/C on day 15; BNL, Renca and B16-F10 vs other nine models; p<0.05, t-test; FIG. 3c
Method: The twelve mouse cell lines shown in Table 1 were subcutaneously inoculated into the right lateral side of 7-week-old immune competent mice. Mice were randomly grouped when the tumor size reached approximately 100 mm^3. Lenvatinib (10 mg/kg once daily) was orally administered for mice of lenvatinib treatment group. The day on which treatment was started was designated as day 1. The values of antitumor activity (ΔT/C) were calculated as ΔT/ΔC×100 where ΔT and ΔC are changes in the mean tumor volumes for drug treated and untreated control groups, respectively. When the tumor volumes decreased from the initial tumor volumes, ΔT/C values were calculated as (Tt−T1)/T1×100, where Tt and T1 are the mean tumor volumes of drug treated group on day t after the start of treatment and day 1, respectively. ΔT/C on day 15 was used for the analysis.

[2] = system: 12 mouse syngeneic tumor models; assay: Changes in MVD gene score of 12 mouse syngeneic tumor models with or without angiogenesis inhibitor treatment (RNA-seq); assay type: in vivo; conditions: tumors collected on day 8, p<0.05, t-test, FIG. 7; for Gene score compared with non-treatment group: lenvatinib 10 mg/kg once daily oral, aflibercept 5 mg/kg twice a week i.p.
Method: Twelve mouse cell lines were cultured with appropriate medium (Table 1). Cells were harvested and suspended with Hanks' Balanced Salt Solution (HBSS) and subcutaneously inoculated into right lateral side of 7-week old immune competent mice. Tumor size was measured by an electronic digital caliper (Digimatic Caliper, Mitsutoyo Corporation) and calculated with a formula; (short diameter (mm))^2×(long diameter (mm))/2. Tumors around 100 mm^3 were resected and soaked with RNA later. mRNA extracted from tumor samples were followed by RNA-seq using Illumina NovaSeq™ (GENEWIZ) to quantify expression levels of mRNA. Sequenced reads were subjected to quality assessment by FastQC (version 0.11.5). Illumina adaptor sequences and low quality bases were trimmed by using Trimmomatic (version 0.36). Filtered reads were mapped to the mouse genome (GRCm38/mm10 and Ensembl 88) by using STAR (v2.5.2b). Gene expression levels in transcripts per million (TPM) for all samples were estimated by using RSEM (v1.2.31). Using the same tumor samples, CD31 was stained with anti-CD31 antibody (Clone SZ31, dianova) to detect endothelial cells in IHC analysis. Microvessel density (MVDCD31) score was calculated by dividing the number of CD31 positive blood vessels by tumor area using HALO (Indica Lab).
We developed a gene score by the following steps. First, we extracted 1086 genes that were highly expressed in an endothelial cell population using scRNA-seq data of the Hepa 1-6 mouse HCC model. Next, we extracted genes with TOP20 Pearson's correlation coefficient between its logarithm-transformed expression values (log2 (TPM+1)) and MVD (IHCCD31) using 12 syngeneic tumor models that were measured by RNA-seq and IHC, respectively. Of these 20 genes, we selected seven genes that had known association with vasculature from literature search and added 3 well-known endothelial cell markers to the gene list (Table 2). We further selected genes whose expression were specific to endothelial cell cluster by manually checking t-SNE plots of scRNA-seq data of Hepa 1-6 HCC model. Finally, six genes were chosen as mouse MVD gene set. The gene score of sample i was calculated as follows: […]
The twelve mouse cell lines shown in Table 1 were subcutaneously inoculated into right lateral side of 7-week-old immune competent mice. Mice were randomly grouped into non-treatment and lenvatinib treatment groups when the tumor size reached approximately 100 mm^3 (n=3 for each group). Lenvatinib (10 mg/kg once daily) was orally administered for mice of lenvatinib treatment group and aflibercept (5 mg/kg twice a week) was administered intraperitoneally for mice of aflibercept treatment group for a week. The day on which treatment was started was designated as day 1. […]

[3] = system: PLC/PRF/5 xenograft HCC model and two HCC patient-derived xenograft models; conditions: cited from earlier work

COc1cc2nccc(Oc3ccc(NC(=O)NC4CC4)c(Cl)c3)c2cc1C(N)=O [lenvatinib, 4-(3-chloro-4-(cyclopropylaminocarbonyl)aminophenoxy)-7-methoxy-6-quinolinecarb oxamide]
antitumor activity (ΔT/C) in lenvatinib sensitive models compared to other nine tumor models [1]: more antitumor activity
Gene score compared with non-treatment group [2]: decreased
number of tumor models (of 12) in which gene score was decreased vs non-treatment group [2]: 10 tumor models
tumor microvessel density [3]: reduced tumor microvessel density

aflibercept: inhibitor of VEGF which binds to circulating VEGF and acts as VEGF-trap, leading to inhibiting tumor angiogenesis
Gene score compared with non-treatment group [2]: significantly decreased
number of tumor models (of 12) in which gene score was decreased vs non-treatment group [2]: eight
